Laboratory results from patent publication US20230220006A1, “REGENTIDE-034 AND COMPOSITION FOR IMPROVING CONDITION OF SKIN, CONTAINING SAME” (NI[…]., LTD., priority 2020, published 2023).
Where a SMILES comes first, the peptide text is derived from it.

Key:
CCD-986Sk = assay: Cytotoxicity evaluation (CCK8) in fibroblasts; type: cell-based, human; details: 5 µM or 10 µM, 48 hours, FBS-free medium
Description: (§1) The cytotoxicity of Regentide-034 prepared in Example 1 above was evaluated. Specifically, cytotoxicities were measured in HaCaT cells, which are human epidermal keratinocytes, and CCD-986Sk, which is human fibroblasts. Keratinocytes were dispensed at 3 × 10^3 cells/well and fibroblasts were dispensed at 5 × 10^3 cells/well in a 96-well plate, and then cultured in cell culture conditions for 24 hours in a medium containing 10% FBS. After culturing, 5 µM or 10 µM of Regentide-034 was added to an FBS-free medium, and this was cultured for 48 hours. Thereafter, 10 µl per well of CCK8 reaction solution (Dojindo Molecular Technologies, Kumamoto, Japan) was treated and reacted for 4 hours, and then absorbance was measured at 450 nm. The average absorbance value for each sample group was obtained, and the cell viability was evaluated by comparing it with the absorbance value of cells that had not been treated with Regentide-034 as a control group.

HaCaT cells = assay: Cytotoxicity evaluation (CCK8) in epidermal keratinocytes; type: cell-based, human; details: 5 µM or 10 µM, 48 hours, FBS-free medium
Description: as §1

Q: What does the source list for `C[C@H](N)C(=O)N[C@@H](Cc1ccc(O)cc1)C(=O)NCC(=O)N[C@@H](CS)C(=O)N[C@@H](Cc1ccc(O)cc1)C(=O)N[C@@H](CS)C(=O)NCC(=O)N[C@@H](Cc1c[nH]c2ccccc12)C(=O)NCC(=O)NCC(N)=O` [Regentide-034, AYGCYCGWGG-NH2] (H-AYGCYCGWGG-NH2)?
A: cytotoxicity (cell viability) to fibroblasts (CCD-986Sk): not toxic; cytotoxicity (cell viability) to epidermal keratinocytes (HaCaT cells): not toxic
